Assay results as given in patent US8053439B2, “Benzophenone derivatives useful for inhibiting formation of microtubule” (Chong Kun Dang Pharmaceutical Corp., priority 2006, dated 2011).

Each molecule was assayed on HL60 cells (assay: Inhibition effect of HL60 cell line growth (MTT, 3 days)). Conditions: Homo sapiens, HL-60, 72 h, read-out: HL60 Growth Inhibition.
Assay type: cell-based
Method: 1. Inhibition Effect of HL60 Cell Line Growth
A 10% FBS-contained RPMI1640 badge was used for culturing HL60 cells. The test substance was prepared by dissolving in DMSO to a concentration of 10 mg/ml, and continuously diluting with PBS to a final concentration of 100 μg/ml to 0.03 μg/ml. In a 96-well microplate, 180 μl of the badge containing 6.0×10^4 cells/ml of cells and 20 μl of continuously diluted test substance were added. The mixture was cultured at 37° C. with 5% CO2 atmosphere for 3 days. After completion of the cultivation, 50 μl of a solution of 1.25 mg/ml MTT (3-(4,5-dimethylthiazol-2-yl)-2,5-diphenyltetrazolium bromide) dissolved in PBS was added to all wells, and the resulting mixture was reacted at 37° C. for 3 hours. Thus formed formazan crystals were dissolved in 150 μl of DMSO, and an absorbance was measured at 570 nm.

| SMILES | IC50 |
| --- | --- |
| COc1ccc(-c2nccs2)cc1C(=O)c1cc(OC)c(OC)c(OC)c1 [Compound 583, (2-methoxy-5-(thiazol-2-yl)phenyl)(3,4,5-trimethoxyphenyl)methanone] | 10 nM |
| COc1cc(C(=O)c2ccc(-c3cccnc3)cc2-n2cncn2)cc(OC)c1OC [Compound 511, (4-pyridin-3-yl-2-[1,2,4]thiazol-1-yl-phenyl)(3,4,5-trimethoxyphenyl)methanone] | 100 nM |
| COc1ccc(-c2ccc(N)c(C(=O)c3cc(OC)c(OC)c(OC)c3)c2)cc1 [Compound 226, (4-amino-4′-methoxybiphenyl-3-yl)(3,4,5-trimethoxyphenyl)methanone] | 370 nM |

Same assay, conditions: Homo sapiens, HL-60, 72 h; HL60 cells, 3 days culture, MTT, absorbance 570 nm; read-out: HL60 Growth Inhibition

| IC50 | SMILES |
| --- | --- |
| 80 nM | COc1cc(C(=O)c2ccc(-c3ccco3)cc2-n2cncn2)cc(OC)c1OC [Compound 443, (4-(furan-2-yl)-2-(1H-1,2,4-triazol-1-yl)phenyl)(3,4,5-trimethoxyphenyl)methanone] |
| 390 nM | COCOc1c(C)cc(C(=O)c2cc(-c3ccco3)ccc2OC)cc1C [Compound 265, (5-(furan-2-yl)-2-methoxyphenyl)(4-(methoxymethoxy)-3,5-dimethylphenyl)methanone] |
| 35 nM | COc1ccc(-c2ccco2)cc1C(=O)c1cc(OC)c(OC)c(OC)c1 [Compound 203, (5-(furan-2-yl)-2-methoxyphenyl)(3,4,5-trimethoxyphenyl)methanone] |
| 120 nM | COc1ccc(-c2ccco2)cc1C(=O)c1cc(CO)c(OC)c(OC)c1 [Compound 249, (5-(furan-2-yl)-2-methoxyphenyl)(3-(hydroxymethyl)-4,5-dimethoxyphenyl)methanone] |
| 90 nM | COc1cc(C(=O)c2ccc(-c3csc(NC(C)=O)n3)cc2-n2cncn2)cc(OC)c1OC [Compound 560, N-(4-(3-(1H-1,2,4-triazol-1-yl)-4-(3,4,5-trimethoxybenzoyl)phenyl)thiazol-2-yl)acetamide] |
| 11600 nM | COc1cc(C(=O)c2ccc(-c3ccccc3O)cc2F)cc(OC)c1OC [Compound 457, (2′-hydroxy-3-(fluoro)biphenyl-4-yl)(3,4,5-trimethoxyphenyl)methanone] |
| 250 nM | COc1cc(C(=O)c2ccc(-c3csc(C(C)(C)O)n3)cc2-n2cncn2)cc(OC)c1OC [Compound 563, (4-(2-(2-hydroxypropan-2-yl)thiazol-4-yl)-2-(1H-1,2,4-triazol-1-yl)phenyl)(3,4,5-trimethoxyphenyl)methanone] |
| 170 nM | O=C(c1ccc(-c2ccco2)cc1-n1cncn1)c1c(F)c(F)c(F)c(F)c1F [Compound 446, (4-(furan-2-yl)-2-(1H-1,2,4,-triazol-1-yl)phenyl)(pentafluorophenyl)methanone] |
| 30 nM | COc1cc(C(=O)c2ccc(-c3csc(N)n3)cc2-n2cncn2)cc(OC)c1OC(F)F [Compound 547, (4-(2-aminothiazol-4-yl)-2-(1H-1,2,4-triazol-1-yl)phenyl)(4-(difluoromethoxy)-3,5-dimethoxyphenyl)methanone] |
| 80 nM | COc1cc(C(=O)c2cc(-c3ccsc3)ccc2N)cc(OC)c1OC [Compound 301, (2-amino-5-(thiophen-3-yl)phenyl)(3,4,5-trimethoxyphenyl)methanone] |
| 1340 nM | COc1cc(C(=O)c2ccc(-n3cncn3)cc2N)cc(OC)c1OC [Compound 272, (2-amino-4-(1H-1,2,4-triazol-1-yl)phenyl)(3,4,5-trimethoxyphenyl)methanone] |
| 480 nM | COc1ccc(-c2ccco2)cc1C(=O)c1cc(C)c(OC)c(C)c1 [Compound 264, (5-(furan-2-yl)-2-methoxyphenyl)(4-methoxy-3,5-dimethylphenyl)methanone] |
| 30 nM | COc1cc(C(=O)c2cc(-c3ccc[nH]3)ccc2-n2cncn2)cc(OC)c1OC [Compound 409, (5-(1H-pyrrole-2-yl)-2-(1H-1,2,4-triazol-1-yl)phenyl)(3,4,5-trimethoxyphenyl)methanone] |
| 30 nM | COc1cc(C(=O)c2cc(-c3nccs3)ccc2-n2cnnn2)cc(OC)c1OC [Compound 401, (2-(1H-tetrazol-1-yl)-5-(thiazol-2-yl)phenyl)(3,4,5-trimethoxyphenyl)methanone] |
| 120 nM | COc1cc(C(=O)c2ccc(-c3cccc(NS(C)(=O)=O)c3)cc2N)cc(OC)c1OC [Compound 494, N-(3′-amino-4′-(3,4,5-trimethoxybenzoyl)-biphenyl-3-yl)methanesulfonamide] |
| 58 nM | COc1cc(C(=O)c2cc(-c3ccco3)ccc2N)cc(OC)c1OC [Compound 225, (2-amino-5-(furan-2-yl)phenyl)(3,4,5-trimethoxyphenyl)methanone] |
| 40 nM | COc1cc(C(=O)c2cccc(-c3ncco3)c2)cc(OC)c1OC [Compound 587, (3-(oxazol-2-yl)phenyl)(3,4,5-trimethoxyphenyl)methanone] |
| 100 nM | COc1cc(C(=O)c2cc(-c3nccs3)ccc2NCCCO)cc(OC)c1OC [Compound 348, (2-(3-hydroxypropylamino)-5-(thiazol-2-yl)phenyl)(3,4,5-trimethoxyphenyl)methanone] |
| 130 nM | COc1cc(C(=O)c2cc(-c3cccs3)ccc2NC(C)=O)cc(OC)c1OC [Compound 279, N-(4-(thiophen-2-yl)-2-(3,4,5-trimethoxybenzoyl)phenyl)acetamide] |

| IC50 | SMILES |
| --- | --- |
| 110 nM | COc1cc(C(=O)c2cc(-c3ccco3)ccc2[N+](=O)[O-])cc(OC)c1OC [Compound 224, (5-(furan-2-yl)-2-nitrophenyl)(3,4,5-trimethoxyphenyl) methanone] |
| 33 nM | COc1cc(C(=O)c2ccc(-c3ccsc3)cc2-n2cncn2)cc(OC)c1OC [Compound 462, (4-(thiophen-3-yl)-2-(1H-1,2,4,-triazol-1-yl)phenyl)(3,4,5-trimethoxyphenyl)methanone] |
| 110 nM | COc1cc(C(=O)c2cc(-c3ccc[nH]3)ccc2NCCCO)cc(OC)c1OC [Compound 363, (2-(3-hydroxypropylamino)-5-(1H-pyrrole-2-yl)phenyl)(3,4,5-trimethoxyphenyl)methanone] |
| 90 nM | COc1cc(C(=O)c2ccc(-c3csc(CO)n3)cc2-n2cncn2)cc(OC)c1OC [Compound 564, (4-(2-(hydroxymethyl)thiazol-4-yl)-2-(1H-1,2,4-triazol-1-yl)phenyl)(3,4,5-trimethoxyphenyl)methanone] |
| 190 nM | COc1cc(C(=O)c2cc(-c3cccc(N)c3)ccc2N)cc(OC)c1OC [Compound 337, (4,5′-diaminophenyl-3-yl)(3,4,5-trimethoxyphenyl)methanone] |
| 48 nM | COc1cc(C(=O)c2cc(-c3cccs3)ccc2N)cc(OC)c1OC [Compound 283, (2-amino-5-(thiophen-2-yl)phenyl)(3,4,5-trimethoxyphenyl)methanone] |
| 100 nM | COC(=O)c1ccc(-c2nccs2)cc1C(=O)c1cc(OC)c(OC)c(OC)c1 [Compound 374, 4-(thiazol-2-yl)-2-(3,4,5-trimethoxybenzoyl)benzoic acid methyl ester] |
| 100 nM | COc1cc(C(=O)c2cc(-c3ccccn3)ccc2-n2cncn2)cc(OC)c1OC [Compound 346, (5-(pyridin-2-yl)-2-(1H-1,2,4-triazol-1-yl)phenyl)(3,4,5-trimethoxyphenyl)methanone] |
| 70 nM | COc1cc(C(=O)c2cc(-c3nccs3)ccc2N)cc(CO)c1OC [Compound 286, (2-amino-5-(thiazol-2-yl)phenyl)(3-(hydroxymethyl)-4,5-dimethoxyphenyl)methanone] |
| 110 nM | COc1cc(C(=O)c2cc(-c3ccccn3)ccc2NCCCO)cc(OC)c1OC [Compound 380, (2-(3-hydroxypropylamino)-5-(pyridin-2-yl)phenyl)(3,4,5-trimethoxyphenyl)methanone] |
| 150 nM | CNc1ccc(-c2ccco2)cc1C(=O)c1cc(OC)c(OC)c(OC)c1 [Compound 282, (5-(furan-2-yl)-2-(methylamino)phenyl)(3,4,5-trimethoxyphenyl)methanone] |
| 7 nM | COc1cc(C(=O)c2cc(-c3ncco3)ccc2N)cc(OC)c1OC [Compound 289, (2-amino-5-(oxazol-2-yl)phenyl)(3,4,5-trimethoxyphenyl)methanone] |
| 90 nM | COc1cc(C(=O)c2ccc(-c3nc(CO)cs3)cc2-n2cncn2)cc(OC)c1OC [Compound 554, ((4-(4-hydroxymethyl)thiazol-2-yl)-2-(1H-1,2,4-triazol-1-yl)phenyl)(3,4,5-trimethoxyphenyl)methanone] |
| 120 nM | COc1ccc(-c2cccs2)cc1C(=O)c1cc(OC)c(OC)c(OC)c1 [Compound 594, (2-methoxy-5-(thiophen-2-yl)phenyl)(3,4,5-trimethoxyphenyl)methanone] |
| 90 nM | COc1cc(C(=O)c2cc(-c3ccco3)ccc2OS(C)(=O)=O)cc(OC)c1OC [Compound 241, methanesulfonic acid 4-(furan-2-yl)-2-(3,4,5-trimethoxybenzoyl)phenyl] |
| 230 nM | COc1cc(C(=O)c2cc(-c3csc(C)n3)ccc2-n2cncn2)cc(OC)c1OC [Compound 596, (5-(2-methylthiazol-4-yl)-2-(1H-1,2,4-triazol-1-yl)phenyl)(3,4,5-trimethoxyphenyl)methanone] |
| 70 nM | COc1cc(C(=O)c2cc(-c3nccs3)ccc2-c2cncnc2)cc(OC)c1OC [Compound 365, (2-(pyrimidin-5-yl)-5-(thiazol-2-yl)phenyl)(3,4,5-trimethoxyphenyl)methanone] |
| 200 nM | COc1cc(C(=O)c2cccc(-c3ccc[nH]3)c2)cc(OC)c1OC [Compound 591, (3-(1H-pyrrol-2-yl)phenyl)(3,4,5-trimethoxyphenyl)methanone] |
